The values below come from patent publication US10174016B2 (BAYER AKTIENGESELLSCHAFT, priority 2014, dated 2019).

One data set relates to rat hepatocytes. In words: In vitro metabolic stability in rat hepatocytes. The format is in vitro ADME, Han Wistar rats. To be noted: 1 μM, 1.0×10^6 cells/mL, maximal oral bioavailability calculated from half-life. On the procedure:
Determination of in vitro metabolic stability in rat hepatocytes (including calculation of hepatic in vivo blood clearance (CL))
Hepatocytes from Han Wistar rats were isolated via a 2-step perfusion method. After perfusion, the liver was carefully removed from the rat: the liver capsule was opened and the hepatocytes were gently shaken out into a Petri dish with ice-cold Williams' medium E (WME). The resulting cell suspension was filtered through sterile gaze in 50 mL falcon tubes and centrifuged at 50×g for 3 min at room temperature. The cell pellet was resuspended in 30 mL WME and centrifuged through a Percoll® gradient for 2 times at 100×g. The hepatocytes were washed again with WME and resuspended in medium containing 5% FCS. Cell viability was determined by trypan blue exclusion.
The test compound was added to a final concentration of 1 μM. […] Samples were frozen at −20° C. overnight, subsequently centrifuged for 15 minutes at 3000 rpm and the supernatant was analyzed with an Agilent 1200 HPLC-system with LCMS/MS detection.
The half-life of a test compound was determined from the concentration-time plot. From the half-life (kel: slope of concentration-time plot; half-life=ln 2/kel) the intrinsic clearances were calculated. Together with the additional parameters liver blood flow, amount of liver cells in vivo and in vitro.
(§1) Metabolic instability is often the main clearance mechanism of xenobiotica leading to a high CL and low bioavailability which may eventually result in a short half-life and a low exposure after oral administration. Thus, reducing the susceptibility of metabolic degradation usually leads to a more favourable pharmacokinetic profile. When using liver microsomes as incubation matrix main phase I metabolic reactions, typically oxidoreductive reactions by cytochrome P450 enzymes and flavin mono-oxygenases (FMO) and hydrolytic reactions by esterases/amidases/epoxidhydrolases, are described. When the incubation of the test compound is performed in a hepatocyte matrix all potential hepatic metabolic processes (phase I and phase II) are covered.

A short description of data set [1]: In vitro metabolic stability in liver microsomes (calculation of CL and Fmax). Format: in vitro ADME, human. To be noted: 1 μM, 0.5 mg/mL protein, maximal oral bioavailability calculated from half-life. The protocol:
In Vitro Metabolic Stability Assays Determination of in vitro metabolic stability in microsomes (including calculation of hepatic in vivo blood clearance (CL) and of maximal oral bioavailability (Fmax))
The metabolic assay was started shortly afterwards by adding the test compound to the incubation at a final volume of 1 mL. Organic solvent in the incubations was limited to […] dimethylsulfoxide (DMSO) and ≤1% acetonitrile. […] Samples were frozen at −20° C. overnight, subsequently centrifuged for 15 minutes at 3000 rpm and the supernatant was analyzed with an Agilent 1200 HPLC-system with LCMS/MS detection.
The half-life of a test compound was determined from the concentration-time plot. From the half-life (kel: slope of concentration-time plot; half-life=ln 2/kel) the intrinsic clearances were calculated. Together with the additional parameters liver blood flow, specific liver weight and microsomal protein content the hepatic in vivo blood clearance (CL) and the maximal oral bioavailability (Fmax) were calculated for the different species.
as §1

The target in a further data set is human P2X2/3 receptor (Homo sapiens (Human), UniProt P56373+Q9UBL9). In words: Intracellular calcium measurement (FLIPR, Fluo-4) of antagonist activity at human P2X2/3 receptors. To be noted: human P2X2/3, FLIPR calcium assay, agonist α,β-Me-ATP; read-out: hP2X2/3 IC50. The format is cell-based. A digest of the protocol: (§2)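 Cells expressing human P2X3 or P2X2/3, loaded with Fluo-4, preincubated 30 min at 37° C. with compound (1% DMSO final), then challenged with α,β-Me-ATP at its EC80. Peak FLIPR fluorescence over 90 sec gave % response; IC50, maximal inhibition and Hill slope from triplicates.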
Chain of human P2X2/3 receptor (P56373 whole entry): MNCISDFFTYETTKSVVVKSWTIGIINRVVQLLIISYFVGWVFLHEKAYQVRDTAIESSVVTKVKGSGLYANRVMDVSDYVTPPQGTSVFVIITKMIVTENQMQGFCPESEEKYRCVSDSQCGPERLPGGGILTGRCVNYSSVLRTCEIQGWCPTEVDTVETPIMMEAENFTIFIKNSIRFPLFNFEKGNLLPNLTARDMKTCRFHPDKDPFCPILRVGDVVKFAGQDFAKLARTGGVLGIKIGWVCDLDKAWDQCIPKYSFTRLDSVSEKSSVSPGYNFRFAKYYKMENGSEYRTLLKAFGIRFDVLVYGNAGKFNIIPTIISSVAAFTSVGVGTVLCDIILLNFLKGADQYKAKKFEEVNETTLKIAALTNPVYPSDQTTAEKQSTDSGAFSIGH
Chain of human P2X2/3 receptor (Q9UBL9 whole entry): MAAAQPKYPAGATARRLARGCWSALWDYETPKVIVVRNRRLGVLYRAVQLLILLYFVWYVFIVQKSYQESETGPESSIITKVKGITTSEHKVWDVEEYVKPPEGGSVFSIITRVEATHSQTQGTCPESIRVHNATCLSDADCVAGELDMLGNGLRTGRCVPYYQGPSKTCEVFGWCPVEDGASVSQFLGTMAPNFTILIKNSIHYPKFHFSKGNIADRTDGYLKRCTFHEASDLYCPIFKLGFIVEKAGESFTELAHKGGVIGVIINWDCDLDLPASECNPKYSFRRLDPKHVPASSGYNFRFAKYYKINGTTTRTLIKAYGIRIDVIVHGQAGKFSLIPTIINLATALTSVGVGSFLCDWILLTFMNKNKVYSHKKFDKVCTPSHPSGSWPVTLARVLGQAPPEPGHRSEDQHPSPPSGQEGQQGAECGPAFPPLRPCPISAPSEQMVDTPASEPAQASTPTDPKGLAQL
(A change in cytosolic calcium serves as a functional read-out for many receptors and channels.)

The next data set addresses human P2X3 receptor (Homo sapiens (Human), UniProt P56373). In words: Intracellular calcium measurement (FLIPR, Fluo-4) of antagonist activity at human P2X3 receptors. The format is cell-based. To be noted: read-out: hP2X3 IC50. The gist of the method: as §2
Setting [2] is: human P2X3, FLIPR calcium assay, agonist α,β-Me-ATP.

Read-outs that look alike come from different tables or passages of the source. Some results are limits rather than exact numbers.

Chain of human P2X3 receptor (P56373 whole entry): as the sequence (P56373 whole entry) above

In the case of `Cc1cnc(-c2cc(OC(C)C(C)O)cc(C(=O)N[C@H](C)c3ccc(C(F)(F)F)nn3)c2)s1` (single isomer, unassigned) [Example 183], the “Rat hepatocyte Fmax” value in the data set on rat hepatocytes is reported as 43%. Moreover, the “Human liver microsome Fmax” value in data set [1] was 74%.

On to `Cc1cnc(-c2cc(OC(C)C(C)O)cc(C(=O)N[C@H](C)c3cnc(C(F)(F)F)nc3)c2)s1` (single isomer, unassigned) [Example 339], for which, in the data set on rat hepatocytes, the “Rat hepatocyte Fmax” value was 52%. Besides, the “Human liver microsome Fmax” value in data set [1] is 94%.

For `Cc1cnc(-c2cc(OC(C)C(C)O)cc(C(=O)N[C@H](C)c3cnc(C(F)(F)F)nc3)c2)s1` (single isomer, unassigned) [Example 340], the “Rat hepatocyte Fmax” value in the data set with rat hepatocytes is 64%. Besides, the “Human liver microsome Fmax” value in data set [1] is 90%.

Consider `Cc1cnc(-c2cc(OC[C@@H]3COCC(=O)N3C)cc(C(=O)N[C@H](C)c3cnc(C(F)(F)F)nc3)c2)s1` [Example 402, 3-{[(3S)-4-methyl-5-oxomorpholin-3-yl]methoxy}-5-(5-methyl-1,3-thiazol-2-yl)-N-{(1R)-1-[2-(trifluoromethyl)pyrimidin-5-yl]ethyl}benzamide], for which the IC50 at human P2X2/3 receptor was 1250 nM; on human P2X3 receptor (setting [2]) it was 21 nM.

As for `Cc1cnc(-c2cc(OC[C@@H]3COCC(=O)N3)cc(C(=O)N[C@H](C)c3cnc(C(F)(F)F)nc3)c2)s1` [Example 403, 3-(5-methyl-1,3-thiazol-2-yl)-5-{[(3S)-5-oxomorpholin-3-yl]methoxy}-N-{(1R)-1-[2-(trifluoromethyl)pyrimidin-5-yl]ethyl}benzamide], the IC50 at human P2X2/3 receptor came to 2110 nM; at human P2X3 receptor it was 56 nM.

Consider `Cc1cnc(-c2cc(OCC34CC(CO3)N(C(=O)OC(C)(C)C)C4)cc(C(=O)N[C@H](C)c3cnc(C(F)(F)F)nc3)c2)s1` (stereo partly drawn) [Example 404, tert-butyl 1-{[3-(5-methyl-1,3-thiazol-2-yl)-5-({(1R)-1-[2-(trifluoromethyl)pyrimidin-5-yl]ethyl}carbamoyl)phenoxy]methyl}-2-oxa-5-azabicyclo[2.2.1]heptane-5-carboxylate], for which the figures for the IC50 at human P2X2/3 receptor and at human P2X3 receptor (setting [2]) were 533 nM and 44 nM, respectively.

In the case of `Cc1cnc(-c2cc(OCC34CC(CO3)N(C(C)C)C4)cc(C(=O)N[C@H](C)c3cnc(C(F)(F)F)nc3)c2)s1` (stereo partly drawn) [Example 405, 3-[(5-isopropyl-2-oxa-5-azabicyclo[2.2.1]hept-1-yl)methoxy]-5-(5-methyl-1,3-thiazol-2-yl)-N-{(1R)-1-[2-(trifluoromethyl)pyrimidin-5-yl]ethyl}benzamide], the IC50 at human P2X2/3 receptor was found to be 1560 nM; on human P2X3 receptor (setting [2]), 17 nM.

Take `Cc1cnc(-c2cc(OCC34CC(CO3)N(C)C4)cc(C(=O)N[C@H](C)c3cnc(C(F)(F)F)nc3)c2)s1` (stereo partly drawn) [Example 406, 3-[(5-methyl-2-oxa-5-azabicyclo[2.2.1]hept-1-yl)methoxy]-5-(5-methyl-1,3-thiazol-2-yl)-N-{(1R)-1-[2-(trifluoromethyl)pyrimidin-5-yl]ethyl}benzamide]: the IC50 on human P2X2/3 receptor was determined as 2030 nM; at human P2X3 receptor (setting [2]), 26 nM.

For the compound `CCCN1CC2(COc3cc(C(=O)N[C@H](C)c4cnc(C(F)(F)F)nc4)cc(-c4ncc(C)s4)c3)CC1CO2` (stereo partly drawn) [Example 408, 3-(5-methyl-1,3-thiazol-2-yl)-5-[(5-propyl-2-oxa-5-azabicyclo[2.2.1]hept-1-yl)methoxy]-N-{(1R)-1-[2-(trifluoromethyl)pyrimidin-5-yl]ethyl}benzamide], the values for the IC50 on human P2X2/3 receptor and at human P2X3 receptor (setting [2]) were 1710 nM and 32 nM, respectively.

For the compound `COC(=O)N1CC2(COc3cc(C(=O)N[C@H](C)c4cnc(C(F)(F)F)nc4)cc(-c4ncc(C)s4)c3)CC1CO2` (stereo partly drawn) [Example 409, Methyl 1-{[3-(5-methyl-1,3-thiazol-2-yl)-5-({(1R)-1-[2-(trifluoromethyl)pyrimidin-5-yl]ethyl}carbamoyl)phenoxy]methyl}-2-oxa-5-azabicyclo[2.2.1]heptane-5-carboxylate], the IC50 at human P2X2/3 receptor was 976 nM; on human P2X3 receptor (setting [2]), 22 nM.

Regarding `CCOC(=O)N1CC2(COc3cc(C(=O)N[C@H](C)c4cnc(C(F)(F)F)nc4)cc(-c4ncc(C)s4)c3)CC1CO2` (stereo partly drawn) [Example 410, Ethyl 1-{[3-(5-methyl-1,3-thiazol-2-yl)-5-({(1R)-1-[2-(trifluoromethyl)pyrimidin-5-yl]ethyl}carbamoyl)phenoxy]methyl}-2-oxa-5-azabicyclo[2.2.1]heptane-5-carboxylate], the IC50 on human P2X2/3 receptor was found to be 906 nM; at human P2X3 receptor (setting [2]), 22 nM.

Take `CCN1CCO[C@H](COc2cc(C(=O)N[C@H](C)c3cnc(C(F)(F)F)nc3)cc(-c3ncc(C)s3)c2)C1` [Example 411, 3-{[(2S)-4-ethylmorpholin-2-yl]methoxy}-5-(5-methyl-1,3-thiazol-2-yl)-N-{(1R)-1-[2-(trifluoromethyl)pyrimidin-5-yl]ethyl}benzamide]: the figures for the IC50 at human P2X2/3 receptor and at human P2X3 receptor (setting [2]) were 697 nM and 20 nM, respectively.

With `Cc1cnc(-c2cc(OC[C@H]3CNCCO3)cc(C(=O)N[C@@H](C)c3cnc(C(F)(F)F)nc3)c2)s1` [Example 413, 3-(5-methyl-1,3-thiazol-2-yl)-5-[(2R)-morpholin-2-ylmethoxy]-N-{(1S)-1-[2-(trifluoromethyl)pyrimidin-5-yl]ethyl}benzamide], the IC50 is no less than 10000 nM at human P2X2/3 receptor and 597 nM on human P2X3 receptor (setting [2]).

As to `CCc1cnc(-c2cc(OC[C@@H]3CNCCO3)cc(C(=O)N[C@H](C)c3ccc(C(F)(F)F)nn3)c2)s1` [Example 414, 3-(5-ethyl-1,3-thiazol-2-yl)-5-[(2S)-morpholin-2-ylmethoxy]-N-{(1R)-1-[6-(trifluoromethyl)pyridazin-3-yl]ethyl}benzamide], the IC50 was 2270 nM on human P2X2/3 receptor and 29 nM on human P2X3 receptor (setting [2]).

For the compound `CCc1cnc(-c2cc(OC[C@H]3CNCCO3)cc(C(=O)N[C@H](C)c3ccc(C(F)(F)F)nn3)c2)s1` [Example 415, 3-(5-ethyl-1,3-thiazol-2-yl)-5-[(2R)-morpholin-2-ylmethoxy]-N-{(1R)-1-[6-(trifluoromethyl)pyridazin-3-yl]ethyl}benzamide], the IC50 turned out to be 2180 nM at human P2X2/3 receptor and 10 nM at human P2X3 receptor (setting [2]).

Take `Cc1cnc(-c2cc(OC[C@H]3CN(C)CCO3)cc(C(=O)N[C@@H](C)c3cnc(C(F)(F)F)nc3)c2)s1` [Example 416, 3-{[(2R)-4-methylmorpholin-2-yl]methoxy}-5-(5-methyl-1,3-thiazol-2-yl)-N-{(1S)-1-[2-(trifluoromethyl)pyrimidin-5-yl]ethyl}benzamide]: the IC50 is no less than 10000 nM at human P2X2/3 receptor and 227 nM on human P2X3 receptor.

In the case of `Cc1cnc(-c2cc(OC[C@@H]3CN(C)CCO3)cc(C(=O)N[C@@H](C)c3cnc(C(F)(F)F)nc3)c2)s1` [Example 417, 3-{[(2S)-4-methylmorpholin-2-yl]methoxy}-5-(5-methyl-1,3-thiazol-2-yl)-N-{(1S)-1-[2-(trifluoromethyl)pyrimidin-5-yl]ethyl}benzamide], the results for the IC50 at human P2X2/3 receptor and at human P2X3 receptor were no less than 10000 nM and 434 nM, respectively.

In the case of `CCc1cnc(-c2cc(OC[C@@H]3CN(C)CCO3)cc(C(=O)N[C@H](C)c3ccc(C(F)(F)F)nn3)c2)s1` [Example 418, 3-(5-Ethyl-1,3-thiazol-2-yl)-5-{[(2S)-4-methylmorpholin-2-yl]methoxy}-N-{(1R)-1-[6-(trifluoromethyl)pyridazin-3-yl]ethyl}benzamide], the IC50 at human P2X2/3 receptor turned out to be 1560 nM; on human P2X3 receptor (setting [2]) it was 23 nM.
